From patent publication US7612108B2, “2-phenylthiophene derivative” (Astellas Pharma Inc., priority 2004, dated 2009)
pIC50: −log10 of the molar value.

Molecular target: T1, xanthine oxidase (derived from butter milk) (Bos taurus, UniProt P80457)
T1 construct: xanthine oxidase (derived from butter milk, manufactured by Sigma); purchased Sigma; host or cells: buttermilk (natural source)
Experiment: Xanthine oxidase-inhibitory activity (pterin oxidation, fluorescence)
Format: biochemical
Details: xanthine oxidase 0.03 units/ml, pterin 5 μM
Procedure: A test compound was dissolved in DMSO (manufactured by Nakarai) so as to be a concentration of 10 mM and then used after the concentration was adjusted to an aimed one at use.
The evaluation of xanthine oxidase-inhibitory activity of the compound of the invention was carried out using a method described in a document (Free Radic. Biol. Med. 6, 607-615, 1992) with partial modification. Namely, xanthine oxidase (derived from butter milk, manufactured by Sigma) was adjusted to 0.03 units/ml using a 50 mM phosphate buffer and was added to a 96-well plate in an amount of 50 μl/well. Each test compound diluted so as to be a final concentration was added thereto in an amount of 2 μl/well, followed by treatment at room temperature for 20 minutes. Pterin (manufactured by Sigma) was added thereto so as to be a final concentration of 5 μM, followed by reaction at room temperature for 10 minutes. Measurement was performed using a microplate reader saphire (manufactured by Tecan) under conditions of excitation at 345 nm and emission at 390 nm (pterin was oxidized by xanthine oxidase into isoxanthopterin, which emitted a light under the conditions).
The concentration of the test compound at which 50% inhibition was observed (IC50 value) was calculated, the emissions of isoxanthopterin under conditions of the presence or absence of xanthine oxidase being 0% inhibition and 100% inhibition, respectively.

T1 sequence (P80457 whole entry): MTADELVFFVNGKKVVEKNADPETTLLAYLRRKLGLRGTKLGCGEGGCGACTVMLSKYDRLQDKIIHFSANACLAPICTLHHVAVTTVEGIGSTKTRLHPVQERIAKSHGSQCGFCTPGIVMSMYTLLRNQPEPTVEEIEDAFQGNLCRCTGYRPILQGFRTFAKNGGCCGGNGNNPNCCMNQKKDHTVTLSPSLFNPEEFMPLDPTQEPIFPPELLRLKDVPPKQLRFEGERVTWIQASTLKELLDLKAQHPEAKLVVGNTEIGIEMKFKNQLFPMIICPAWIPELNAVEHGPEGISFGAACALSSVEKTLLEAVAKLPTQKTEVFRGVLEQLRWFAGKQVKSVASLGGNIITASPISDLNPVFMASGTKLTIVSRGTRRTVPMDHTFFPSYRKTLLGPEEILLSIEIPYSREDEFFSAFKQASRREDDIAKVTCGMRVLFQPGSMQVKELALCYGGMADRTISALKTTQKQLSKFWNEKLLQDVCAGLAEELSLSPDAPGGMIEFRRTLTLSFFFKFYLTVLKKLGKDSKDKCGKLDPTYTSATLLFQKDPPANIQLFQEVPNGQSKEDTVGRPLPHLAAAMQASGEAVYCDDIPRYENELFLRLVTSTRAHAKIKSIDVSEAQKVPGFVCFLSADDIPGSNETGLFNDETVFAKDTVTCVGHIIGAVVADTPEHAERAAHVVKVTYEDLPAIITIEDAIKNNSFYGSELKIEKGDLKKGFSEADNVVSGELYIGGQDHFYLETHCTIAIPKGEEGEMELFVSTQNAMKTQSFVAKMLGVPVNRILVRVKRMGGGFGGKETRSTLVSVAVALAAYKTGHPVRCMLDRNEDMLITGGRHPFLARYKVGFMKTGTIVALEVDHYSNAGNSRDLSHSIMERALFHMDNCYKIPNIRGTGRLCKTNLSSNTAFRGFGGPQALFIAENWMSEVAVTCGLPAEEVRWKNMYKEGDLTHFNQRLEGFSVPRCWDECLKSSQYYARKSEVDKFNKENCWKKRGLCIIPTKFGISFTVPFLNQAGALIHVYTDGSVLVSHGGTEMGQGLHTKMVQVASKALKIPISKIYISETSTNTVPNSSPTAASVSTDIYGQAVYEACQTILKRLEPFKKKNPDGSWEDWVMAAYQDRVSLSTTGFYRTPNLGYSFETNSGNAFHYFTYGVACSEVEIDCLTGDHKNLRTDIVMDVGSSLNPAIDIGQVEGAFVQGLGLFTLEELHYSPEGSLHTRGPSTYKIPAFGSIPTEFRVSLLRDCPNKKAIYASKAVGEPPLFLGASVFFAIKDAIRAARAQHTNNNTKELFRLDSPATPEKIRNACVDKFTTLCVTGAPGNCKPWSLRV

pIC50	Compound
8.49	CCCOc1ccc(-c2ccc(C(=O)[O-])s2)cc1C#N.[Na+] [Example 1, sodium 5-(3-cyano-4-n-propoxyphenyl)thiophene-2-carboxylate]
8.39	CCCCN(C)c1ccc(-c2ccc(C(=O)O)s2)cc1C#N [Example 8, sodium 5-{4-[butyl(methyl)amino]-3-cyanophenyl)thiophene-2-carboxylate]
8.54	CC(C)CSc1ccc(-c2ccc(C(=O)O)s2)cc1C#N [Example 9, sodium 5-[3-cyano-4-(isobutylthio)phenyl]thiophene-2-carboxylate]
8.55	N#Cc1cc(-c2ccc(C(=O)O)s2)ccc1OCc1cccnc1 [Example 19]
8.29	N#Cc1cc(-c2ccc(C(=O)O)s2)ccc1OCCn1cccc1 [Example 22]
7.89	N#CCCCOc1ccc(-c2ccc(C(=O)O)s2)cc1C#N [Example 23]
8.60	N#Cc1cc(-c2ccc(C(=O)O)s2)ccc1OCc1ccccc1 [Example 24]
8.74	N#Cc1cc(-c2ccc(C(=O)O)s2)ccc1N1CCCCC1 [Example 27]
8.70	CC1CCN(c2ccc(-c3ccc(C(=O)O)s3)cc2C#N)CC1 [Example 30]
8.23	CC(=O)c1cc(-c2ccc(C(=O)O)s2)ccc1OC1CCCC1 [Example 33]
8.20	N#Cc1cc(-c2ccc(C(=O)O)s2)ccc1Oc1ccccc1 [Example 34]
8.43	N#Cc1cc(-c2cc(F)c(C(=O)O)s2)ccc1OC/C=C/c1ccccc1 [Example 47]
8.82	CC(C)COc1c(F)cc(-c2ccc(C(=O)O)s2)cc1C#N [Example 54]

Compound	pIC50
CC(C)COc1ccc(-c2ccc(C(=O)O)s2)cc1[N+](=O)[O-] [Example 3, 5-(3-nitro-4-isobutoxyphenyl)thiophene-2-carboxylic acid]	8.16
CC(C)COc1ccc(-c2cc(F)c(C(=O)O)s2)cc1C#N [Example 4, sodium 5-(3-cyano-4-isobutoxyphenyl)-3-fluorothiophene-2-carboxylate]	8.66
CC(C)COc1ccc(-c2ccc(-c3nnn[nH]3)s2)cc1[N+](=O)[O-] [Example 5, 5-[5-(4-isobutoxy-3-nitrophenyl)-2-thienyl]-1H-tetrazole]	8.03

System: ICR mice
Experiment: Serum uric acid-lowering action after oral administration
Format: in vivo
Details: after 2 hours from oral administration, 1 mg/kg
Procedure: A test compound was orally administered compulsorily to ICR mice using an oral sonde. After 2 hours, 6 hours, and, depending on the compound, further 24 hours from the administration, blood was collected from an abdominal aorta and then serum was separated in a usual manner. Serum uric acid was measured on an absorptiometer (SPECTRA MAX 190, manufactured by Molecular Device) by an uricase method using a uric acid-measuring kit (Uric Acid C-TestWako: Wako Pure Chemical Industries, Ltd.) and a uric acid-lowering ratio was determined according to the following equation. Uric acid-lowering ratio (%)=(Uric acid level of control animal−Uric acid level of test compound-administered animal)×100/Uric acid level of control animal

Compound	uric acid-lowering ratio [%]
CCCOc1ccc(-c2ccc(C(=O)[O-])s2)cc1C#N.[Na+] [Example 1, sodium 5-(3-cyano-4-n-propoxyphenyl)thiophene-2-carboxylate]	66

System: male Wistar rats
Experiment: Trinitrobenzenesulfonic acid (TNBS)-induced enteritis-inhibitory action
Format: in vivo, rat
Details: 3 mg/kg oral once a day, 21st day
Procedure: The effectiveness of the compound of the invention on an enteritis model can be also evaluated by a model using trinitrobenzenesulfonic acid (TNBS) as an inducing agent instead of acetic acid (Cell. Mol. Biol, 38, 189-199, 1992). Thus, referring to the method described in the report, the enteritis-suppressing action of the compound of the invention was evaluated.
Namely, TNBS or physiological saline as a normal group was administered into the rectum of male Wistar rats of 200 to 250 g. Thereafter, a test compound or 0.5% methyl cellulose (control group) was orally administered once a day and dissection was performed on each administered group on 21st day. A part of the large intestine 2 to 7 cm from the anus side was cut out and incised. After feces were removed by means of tweezers, the part was washed and a score of morbid conditions was evaluated and tissue weight was measured. The score of morbid conditions and a tissue weight increase-suppressing ratio were calculated as in the evaluation method of the above acetic acid-induced enteritis-suppressing action.

Compound	suppression of intestinal tissue weight increase [%]
CCCOc1ccc(-c2ccc(C(=O)[O-])s2)cc1C#N.[Na+] [Example 1, sodium 5-(3-cyano-4-n-propoxyphenyl)thiophene-2-carboxylate]	≥ 70

System: pyrimidine synthetic pathway
Experiment: Pyrimidine synthetic pathway-inhibitory action (influence on BUN level)
Format: in vivo
Details: oral administration of 30 mg/kg
From the text: Allopurinol which is an existing hyperuricemia therapeutic drug is known to cause renal dysfunction as an undesirable action. As mentioned previously, since allopurinol has a nucleic acid-like structure, as one cause thereof, it is presumed that it inhibits pyrimidine synthetic pathway. […] Thus, according to the method described in the document, the influence of the compounds of the invention on a BUN level was confirmed.

inhibitory action on pyrimidine synthetic pathway (influence on BUN level)	Compound
no inhibitory action	CCCOc1ccc(-c2ccc(C(=O)[O-])s2)cc1C#N.[Na+] [Example 1, sodium 5-(3-cyano-4-n-propoxyphenyl)thiophene-2-carboxylate]
